We go through 1 molecule from publication PMC11192081, “Evidence that the cold- and menthol-sensing functions of the human TRPM8 channel evolved separately” (Science Advances, 2024).

The test system of experiment [1] is T1, AncVert TRPM8.
T1 construct: tetramer
The experiment can be described thus: Fluoforte calcium flux assay, HEK-293T stable cells. Type of experiment: cell-based. Conditions: Homo sapiens. In general terms: Calcium flux is commonly read through the fluorescence of an indicator in the cells.

In experiment [2] the test system is T2, AncMam TRPM8.
T2 construct: tetramer
The description is as above. In kind it is cell-based. Conditions: Homo sapiens.

Consider `CC(C)[C@@H]1CC[C@@H](C)C[C@H]1O` [menthol], for which the EC50 (in general, the concentration giving half of the maximal effect) amounted to 140 ± 40 µM in experiment [1] and 10 ± 1 µM in experiment [2].
